In patent US5679663A, “Pharmaceutical compounds” (priority 1996, dated 1997):
Structures can show the parent of a compound that is named as a salt.

Assays:
Solubility = conditions: for solubility compared with the compound described under (A): relative to Example 5(A)
[1] = tested on: L-dopa induced hypothermia and motor activity; assay: Interaction with L-dopa (hypothermia, depression and reduction of motor activity); assay type: in vivo; conditions: 100 mg/kg; L-dopa 150 mg/kg, mice
Protocol: L-3,4-dihydroxyphenylalanine (L-dopa) was administered in a 150 mg/kg dose, which induces hypothermia, depression and reduction of motor activity.

[2] = tested on: apomorphine-induced stereotypy; assay: Apomorphine-induced stereotypy in rats; assay type: in vivo; conditions: 100 mg/kg, 40 min before apomorphine 20 mg/kg s.c.
Protocol: (§1) Stereotypy in rats was induced by subcutaneous administration of 20 mg/kg of apomorphine. The total duration of the stereotypy episode was evaluated and also the intensity of individual components thereof (licking, gnawing, sniffing). CAPAH was administered 40 minutes before the apomorphine as a 90 mg/kg dose to the mice and 100 mg/kg dose to the rats.

hypoxia induced amnesia = assay: Hypoxia induced amnesia, passive avoidance test; assay type: in vivo, Mongolian Gerbil
Description: (§2) The protective effect of the compound CAPAH was studied in relation to both scopolamine and hypoxia induced amnesia in gerbils by the passive avoidance test.
(§3) Gerbils underwent a training schedule of "passive avoidance", i.e. they learned not to enter a dark compartment into which an electric shock was delivered.
The gerbils were trained as described above. To produce a hypoxic environment a gas-mixture (4% oxygen, 96% nitrogen) was blown through a plastic box (12 l/min). Immediately after the training period the gerbil was put into this hypoxic environment and removed when gasping was shown (maximum stay in the hypoxic box is 40 seconds).
(§4) The gerbils were trained as described above in a step-down type passive avoidance apparatus (Model E13-08, Coulbourn Instruments, Lehigh Valley, USA), divided into a safe part and a grill part. […] Training of the passive avoidance was carried out for 5 minutes. The gerbils were placed on the safety platform and received a series of mild electric shocks, […] (shock sensitivity determined for each batch of gerbils) for 3 seconds every 6 seconds when it stepped off the grill. Gerbils were returned to the apparatus for testing 24 hours later and their step-down latencies to the grill floor (recall latency) were recorded (maximum 60 seconds).
(§5) In both these series of experiments Piracetam was used as a control.

[3] = tested on: mice immobilization (behavioural despair); assay: Behavioural despair model (duration of immobilization, swimming); assay type: in vivo, mice (tetrahybrids SVA); conditions: 90 mg/kg; for Duration of mice immobilization, behavioural despair test: 6 minutes of observation
Protocol: In this test, mice (tetrahybrids SVA) were obliged to swim in a limited space, presented as a cylindrical vessel which was 15 cm high containing a water level of 6 cm maintained at a temperature of 21° C. A "slowing down" of swimming activity was observed. This "slowing down" is regarded to reflect the state of lowering of spirits and increasing despair of the mice. The slowing down is diminished by anti-depressants.
CAPAH was investigated in acute and chronic application (for 10 days). The mean duration of animal immobility for 6 minutes of observation was estimated in seconds.
CAPAH was injected in a dose of 90 mg/kg 40 minutes before the experiment.

[4] = tested on: hypoxia induced by direct lack of oxygen; assay: Lifetime following hypoxia induced by direct lack of oxygen; assay type: in vivo, white mice
Protocol: (§6) The potential of CAPAH to provide neuroprotection following a stroke was illustrated by its anti-hypoxic properties in mice using both hypoxia induced directly by lack of oxygen in the atmosphere and hypoxia induced by sodium nitrite injection.
White mice in groups of six with a standard weight of 18 grams were placed in hermetically sealed jars and the lifetime of the animals was recorded.

[5] = tested on: learned helplessness (avoidance reaction); assay: Learned helplessness model (avoidance reaction, shuttle chamber); assay type: in vivo, mice; conditions: for Average latence of avoidance period / Percent of nonavoidance from total test number / Average latence of avoidable period: CAPAH 90 mg/kg, melipramine 7 mg/kg, i.p.
Protocol: The phenomenon of learned helplessness is that exposure to uncontrollable stress produces deficits in subsequent learning tasks. The preliminary non-avoidable aversive phase of the test was carried out in dark chambers (30 cm×15 cm×15 cm) with electrodes in the floor. Mice were placed into the chambers individually where they received a number of stimuli (150 mkA, 60 Hz) for 6 seconds with 30 second intervals. Exposure lasted for 40 minutes. 24 hours later the animals were tested in a "shuttle" chamber which consisted of two compartments with the electrode floor connected by the opening situated 1 cm above the base. The entrance to the neighbouring compartment was blocked by a door operated automatically. Stimulation (150 mkA) was directed in turn to each compartment with 30 second intervals and 4 seconds lag. After 10 sessions the door was closed and electric current stopped. The average summary latent time of avoidance was estimated as well as the total number of non-fulfilled reactions.
Experiments were carried out in 40 male […] weighing 18-20 g. Melipramine was used as a standard preparation. Preparations were injected intraperitoneally in doses: CAPAH--90 mg/kg, melipramine--7 mg/kg. Control animals received an equal quantity of distilled water. In the first control group (control 1) mice were not exposed to non-avoidable aversive stimulations; in the second control group (control 2) the animals were exposed to the preliminary non-avoidable aversive influence but without drug preparations.

[6] = tested on: scopolamine induced amnesia; assay: Scopolamine induced amnesia, passive avoidance test; assay type: in vivo, Mongolian Gerbil
Protocol: as §2, §3
Scopolamine Induced Amnesia
Gerbils received an intra-peritoneal injection of scopolamine (0.5 mg/kg) 30 minutes before the training procedure. The ability of CAPAH, given prior to scopolamine, to prevent the induced amnesia was determined.
as §4, §5

[7] = tested on: haloperidol-induced catalepsy; assay: Impact on catalepsy caused by haloperidol; assay type: in vivo; conditions: 100 mg/kg
Protocol: Catalepsy was evaluated from the animal's ability to maintain an awkward posture (hind legs placed on a 30 mm high pedestal and forelegs on the bench) for 90 seconds at intervals of 10, 60 and 120 minutes after the latest administration of haloperidol.

[8] = tested on: apomorphine-induced hypothermia; assay: Apomorphine-induced hypothermia in mice; assay type: in vivo; conditions: 90 mg/kg, 40 min before apomorphine 25 mg/kg s.c.
Protocol: The effect of CAPAH on apomorphine-induced hypothermia and stereotypy was evaluated. The hypothermia was induced by subcutaneously injecting mice with 25 mg/kg of apomorphine. The change in skin temperature was recorded by a TPEM-1 thermometer immediately before injecting with apomorphine and also 60 and 120 minutes after the administration.
as §1

[9] = Pharmacological investigation (central nervous system); conditions: in vivo
[10] = tested on: hypoxia induced by sodium nitrite; assay: Lifetime following hypoxia induced by sodium nitrite; assay type: in vivo, white mice; conditions: 90 mg/kg i.p.
Protocol: as §6
White mice in groups of eight with a weight in the range of 18 to 21 grams were injected subcutaneously with 300 mg/kg of aqueous sodium nitrite and their subsequent lifetime was recorded. A control group of mice received no additional pre-treatment but a second group received a prior intraperitoneal injection of 90 mg/kg CAPAH.

[11] = Toxicity (LD100, LD50, MTD); assay type: in vivo; conditions: for LD50 / MTD: in vivo; for LD50 / MTD / LD100: species and route not given; for MTD: read-out: MTD (maximum tolerance dose)
[12] = U.S. Pat. Nos. 4,162,264 and 4,162,311; cited from earlier work

## CN(C)c1ccc(P(=O)(CC(=O)NN)OCCCl)cc1 (stereo not drawn) [CAPAH hydrochloride]
Solubility; water
  water solubility: high water solubility

## CN(C)c1ccc(P(=O)(CC(=O)NN)OCCCl)cc1 (stereo not drawn) [CAPAH, (2-chloroethoxy)(p-N,N-dimethylaminophenyl)phosphinylacetohydrazide]
[1]
  activity on L-dopa induced effects: no activity
[2]
  effect on apomorphine-induced stereotypy: no effect
Hypoxia induced amnesia; 1 mg/kg
  Latency (sec ± SEM), hypoxia induced amnesia: 135 ± 21 s
Hypoxia induced amnesia; 10 mg/kg
  Latency (sec ± SEM), hypoxia induced amnesia: 111 ± 25 s
Hypoxia induced amnesia; 30 mg/kg
  Latency (sec ± SEM), hypoxia induced amnesia: 71 ± 28 s
Hypoxia induced amnesia; 100 mg/kg
  Latency (sec ± SEM), hypoxia induced amnesia: 119 ± 23 s
Hypoxia induced amnesia; 300 mg/kg (1/3 DL50)
  toxicity of the dose: toxic
Hypoxia induced amnesia; 300 mg/kg
  Latency (sec ± SEM), hypoxia induced amnesia: 20 ± 8 s
Hypoxia induced amnesia; doses 1, 10, 100 mg/kg
  activity in hypoxia induced amnesia test: active
Hypoxia induced amnesia; doses 30, 300 mg/kg
  activity in hypoxia induced amnesia test: Activity was absent
[3]; repeated application
  duration of "slowing down" (anti-depressant activity): lessens the duration of "slowing down"
[3]; repeated injection (10 days)
  Duration of mice immobilization, behavioural despair test: 177.5 ± 17.5
[3]; single injection, 40 min before
  Duration of mice immobilization, behavioural despair test: 210 ± 22.5 s
[4]; 30 mg/kg i.p., second experiment
  Lifetime (± deviation), hypoxia by direct lack of oxygen: 16.4 ± 1.2 min
[4]; 45 mg/kg i.p., first experiment
  Lifetime (± deviation), hypoxia by direct lack of oxygen: 18.8 ± 1.1 min
[4]; 90 mg/kg i.p., first experiment
  Lifetime (± deviation), hypoxia by direct lack of oxygen: 17.0 ± 0.1 min
[4]; 90 or 45 mg/kg
  effect on lifetime, hypoxia by direct lack of oxygen: extension of lifetime
[5]; 90 mg/kg, single and chronic treatment
  anti-depressant effects, learned helplessness: marked anti-depressant effects
[5]; 6-fold injection
  Average latence of avoidance period: 9.0 ± 0.7
  Percent of nonavoidance from total test number: 2%
[5]; 12-fold injection
  Average latence of avoidable period: 7.9 ± 0.7
  Percent of nonavoidance from total test number: 1.3%
[5]; single injection
  Average latence of avoidable period: 12.1 ± 1.5
  Percent of nonavoidance from total test number: 19%
[6]; 1 mg/kg
  Latency (sec ± SEM), scopolamine induced amnesia: 35 ± 17 s
[6]; 10 mg/kg
  Latency (sec ± SEM), scopolamine induced amnesia: 52 ± 21 s
[6]; 30 mg/kg
  Latency (sec ± SEM), scopolamine induced amnesia: 36 ± 17 s
[6]; 100 mg/kg
  Latency (sec ± SEM), scopolamine induced amnesia: 49 ± 16 s
[6]; 300 mg/kg
  Latency (sec ± SEM), scopolamine induced amnesia: 76 ± 30 s
[6]; lower doses (below 300 mg/kg)
  memory enhancement in scopolamine-induced amnesia: a trend towards memory enhancement
[6]; only at 300 mg/kg
  reversal of scopolamine-induced amnesia: Statistically significant reversal
[7]
  dopamine-mimetic activity: reveals dopamine-mimetic activity
[7]; haloperidol 5 mg/kg hypodermic injection
  effect on haloperidol induced catalepsy: reduces haloperidol induced catalepsy
[8]
  effect on apomorphine-induced hypothermia: no effect
[9]
  effect on the central nervous system: selectively affects the central nervous system
[10]
  effect on lifetime, hypoxia induced by sodium nitrite: extension of lifetime
[10]; sodium nitrite 300 mg/kg s.c.
  Lifetime (± deviation), hypoxia induced by sodium nitrite: 16.9 ± 1.0 min
[11]; comparison with DPAH
  interval between the maximum tolerance dose (MTD) and the LD100: significantly greater interval
  toxicity compared with DPAH: less toxic
[11]
  LD50: 960 ± 35 mg/kg
  MTD: 700 mg/kg
  LD100: 1200 mg/kg

## NNC(=O)CP(=O)(c1ccccc1)c1ccccc1 [DPAH, diphenylphosphinylacetohydrazide, reference compound]
[12]
  properties of DPAH: vegetropic, anti-epileptic and anti-serotonin properties
[11]
  LD50: 315 ± 24.8 mg/kg
  MTD: 200 mg/kg
  LD100: 500 mg/kg

## CC=CC=NNC(=O)CP(=O)(OCCCl)c1ccc(N(C)C)cc1 (stereo not drawn) [Example 5(A), N^β -(but-2-enylidene)-(2-chloroethoxy)-(p-N,N-dimethylaminophenyl)phosphinylacetohydrazide]
Solubility; dimethyl sulphoxide and other aprotic polar solvents
  solubility in dimethyl sulphoxide and other aprotic polar solvents: soluble in dimethyl sulphoxide and other aprotic polar solvents
Solubility; most organic solvents and water
  solubility in most organic solvents and in water: poorly soluble

## CN(C)CCCN1c2ccccc2CCc2ccccc21 [Melipramine, reference compound]
[5]; 6-fold injection
  Average latence of avoidance period: 11.8 ± 1.5
  Percent of nonavoidance from total test number: 29%
[5]; 12-fold injection
  Average latence of avoidable period: 9.2 ± 1.1
  Percent of nonavoidance from total test number: 11%
[5]; single injection
  Average latence of avoidable period: 13.5 ± 1.8
  Percent of nonavoidance from total test number: 43%

## CN(C)c1ccc(P(=O)(CC(=O)NN=CC=Cc2ccccc2)OCCCl)cc1 (stereo not drawn) [N^β -cinnamaylidene]
Solubility
  solubility compared with the compound described under (A): similar

## CN(C)c1ccc(P(=O)(CC(=O)NN=Cc2cccc([N+](=O)[O-])c2)OCCCl)cc1 (stereo not drawn) [N^β -m-nitrobenzylidene]
Solubility
  solubility compared with the compound described under (A): similar

## CN(C)c1ccc(P(=O)(CC(=O)NN=Cc2ccccc2O)OCCCl)cc1 (stereo not drawn) [N^β -o-hydroxybenzylidene]
Solubility
  solubility compared with the compound described under (A): similar

## NC(=O)CN1CCCC1=O [Piracetam, reference compound]
Hypoxia induced amnesia; 100 mg/kg
  Latency (sec ± SEM), hypoxia induced amnesia: 107 ± 19 s
[6]; 100 mg/kg
  Latency (sec ± SEM), scopolamine induced amnesia: 73 ± 24 s
